Laboratory results from patent US10538555B2, “Macrocyclic inhibitors of the PD-1/PD-L1 and CD80(B7-1)/PD-L1 protein/protein interactions” (BRISTOL-MYERS SQUIBB COMPANY, priority 2014, dated 2020).
Where a SMILES comes first, the peptide text is derived from it. Bridges are numbered along the chain shown (N, C = ends). [ ]: non-standard residue; d: D form. ξ: configuration not given here. Trp(1-CH2COOH) = N[C@@H](Cc1cn(CC(=O)O)c2ccccc12)C(=O)O; Phe(3,4,5-F3) = N[C@@H](Cc1cc(F)c(F)c(F)c1)C(=O)O; NMePhe(4-Me) = CN[C@@H](Cc1ccc(C)cc1)C(=O)O; Trp(1-Me) = Cn1cc(C[C@H](N)C(=O)O)c2ccccc21; NMePhe(4-F) = CN[C@@H](Cc1ccc(F)cc1)C(=O)O; Phe(4-F) = N[C@@H](Cc1ccc(F)cc1)C(=O)O; d(cisHyp) = O=C(O)[C@H]1C[C@@H](O)CN1; NMeY = CN[C@@H](Cc1ccc(O)cc1)C(=O)O; Hyp = O=C(O)[C@@H]1C[C@@H](O)CN1; NMeF = CN[C@@H](Cc1ccccc1)C(=O)O; dHyp = O=C(O)[C@H]1C[C@H](O)CN1; NMeL = CN[C@@H](CC(C)C)C(=O)O; NMeNle = CCCC[C@H](NC)C(=O)O; dNle = CCCC[C@@H](N)C(=O)O; Pip = O=C(O)[C@@H]1CCCCN1; dPip = O=C(O)[C@H]1CCCCN1; NMeA = CN[C@@H](C)C(=O)O; Orn = NCCC[C@H](N)C(=O)O; Dab = NCC[C@H](N)C(=O)O; Dap = NC[C@H](N)C(=O)O; ξC = NC(CS)C(=O)O

Target: T1, Human PD-L1/PD-1 (Homo sapiens, UniProt Q9NZQ7)
T1 construct: TVMV protease cleavage site (C); made in house; host or cells: HEK293T cells
Assay: HTRF Human PD-L1/PD-1 binding assay (PD-1-Ig/PD-L1-His)
Settings: PD-L1-His 10 nM, PD-1-Ig 20 nM; class symbol; read-out: HTRF Human PD-L1/PD-1 Binding Assay IC50 Range
Summary of the method: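 Compound preincubated 15 min with PD-L1-His (10 nM final), then PD-1-Ig (20 nM final) added for 15 min in dPBS with 0.1% BSA and 0.05% Tween-20. Detection by Eu-cryptate anti-Ig (1 nM) and APC anti-His (20 nM) after 30 min; 665/620 nm HTRF ratio. Proteins expressed in HEK293T.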

T1 sequence (Q9NZQ7 with tags, fused parts or gaps): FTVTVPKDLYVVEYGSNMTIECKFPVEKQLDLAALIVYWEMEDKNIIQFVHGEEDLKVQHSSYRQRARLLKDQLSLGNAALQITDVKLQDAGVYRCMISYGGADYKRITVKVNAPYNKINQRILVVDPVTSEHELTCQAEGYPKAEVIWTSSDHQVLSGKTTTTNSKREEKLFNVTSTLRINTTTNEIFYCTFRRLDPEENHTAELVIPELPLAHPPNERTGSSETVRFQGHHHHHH

SMILES | IC50 [nM]
CCCC[C@H]1C(=O)N2C[C@@H](O)C[C@@H]2C(=O)N[C@@H](CC(=O)O)C(=O)N[C@@H](C(C)C)C(=O)N(C)[C@@H](Cc2ccc(C)cc2)C(=O)N[C@@H](CCC(=O)O)C(=O)N2CCC[C@@H]2C(=O)N[C@@H](Cc2c[nH]c3ccccc23)C(=O)N[C@@H](Cc2ccc(O)cc2)C(=O)N[C@@H](CC(C)C)C(=O)N[C@H](C(=O)NCC(N)=O)CSCC(=O)N[C@@H](Cc2cc(F)c(F)c(F)c2)C(=O)N(C)[C@@H](Cc2ccccc2)C(=O)N1C [Example 10117] ({CH2CO}-[Phe(3,4,5-F3)][NMeF][NMeNle][dHyp]DV[NMePhe(4-Me)]E[dP]WYLCG-NH2; thioether N-13) | 100 to 990
CCCC[C@H]1C(=O)N2CCC[C@@H]2C(=O)N[C@@H](CC(=O)O)C(=O)N[C@@H](C(C)C)C(=O)N(C)[C@@H](Cc2ccc(C)cc2)C(=O)N[C@@H](CCN)C(=O)N2CCC[C@@H]2C(=O)N[C@@H](Cc2c[nH]c3ccccc23)C(=O)N[C@@H](Cc2ccc(O)cc2)C(=O)N[C@@H](CC(C)C)C(=O)N[C@H](C(=O)NCC(N)=O)CSCC(=O)N[C@@H](Cc2ccc(F)cc2)C(=O)N(C)[C@@H](Cc2ccccc2)C(=O)N1C [Example 10113] ({CH2CO}-[Phe(4-F)][NMeF][NMeNle][dP]DV[NMePhe(4-Me)][Dab][dP]WYLCG-NH2; thioether N-13) | 100 to 990
CCCC[C@H]1NC(=O)[C@H](Cc2c[nH]c3ccccc23)NC(=O)[C@H](CO)NC(=O)[C@H](Cc2c[nH]c3ccccc23)NC(=O)[C@@H]2C[C@@H](O)CN2C(=O)[C@H](CCC(N)=O)NC(=O)[C@H](Cc2cnc[nH]2)NC(=O)[C@@H]2CCCN2C(=O)[C@H](CC(=O)O)NC(=O)[C@H](C)N(C)C(=O)[C@H](Cc2ccc(O)cc2)NC(=O)CSCC(C(=O)NCC(N)=O)NC(=O)[C@H](CCC(=O)O)NC(=O)[C@H](CCCC)N(C)C1=O (stereo partly drawn) [Example 10128] ({CH2CO}-Y[NMeA]DPHQ[Hyp]WSW[dNle][NMeNle]E[ξC]G-NH2; thioether N-14) | 1000 to 10000
CCCC[C@H]1C(=O)N(C)[C@@H](CCCC)C(=O)N[C@@H](CN)C(=O)N[C@H](C(=O)NCC(N)=O)CSCC(=O)N[C@@H](Cc2ccc(O)cc2)C(=O)N(C)[C@@H](C)C(=O)N[C@@H](CC(=O)O)C(=O)N2CCC[C@H]2C(=O)N[C@@H](CN)C(=O)N[C@@H](CC(C)C)C(=O)N2C[C@H](O)C[C@H]2C(=O)N[C@@H](Cc2c[nH]c3ccccc23)C(=O)N[C@@H](CO)C(=O)N[C@@H](Cc2cn(CC(=O)O)c3ccccc23)C(=O)N1C [Example 5227] ({CH2CO}-Y[NMeA]DP[Dap]L[Hyp]WS[Trp(1-CH2COOH)][NMeNle][NMeNle][Dap]CG-NH2; thioether N-14) | 1 to 9.9
CCCC[C@H]1C(=O)N2CCC[C@@H]2C(=O)N[C@@H](CC(=O)O)C(=O)N[C@@H](C(C)C)C(=O)N(C)[C@@H](Cc2ccccc2)C(=O)N[C@@H](CCC(=O)O)C(=O)N2CCCC[C@@H]2C(=O)N[C@@H](Cc2c[nH]c3ccccc23)C(=O)N[C@@H](Cc2ccc(O)cc2)C(=O)N[C@@H](CCN)C(=O)N[C@H](C(=O)NCC(N)=O)CSCC(=O)N[C@@H](Cc2cc(F)c(F)c(F)c2)C(=O)N(C)[C@@H](Cc2ccc(OC)cc2)C(=O)N1C [Example 10603] ({CH2CO}-[Phe(3,4,5-F3)][NMeY](Me)[NMeNle][dP]DV[NMeF]E[dPip]WY[Dab]CG-NH2; thioether N-13) | 1 to 9.9
CCCC[C@H]1C(=O)N2C[C@H](O)C[C@@H]2C(=O)N[C@@H](CC(=O)O)C(=O)N[C@@H](C(C)C)C(=O)N(C)[C@@H](Cc2ccccc2)C(=O)N[C@@H](CCC(=O)O)C(=O)N2C[C@H](O)C[C@@H]2C(=O)N[C@@H](Cc2c[nH]c3ccccc23)C(=O)N[C@@H](Cc2ccc(O)cc2)C(=O)N[C@@H](CCC(=O)O)C(=O)N[C@H](C(=O)NCC(N)=O)CSCC(=O)N[C@@H](Cc2cc(F)c(F)c(F)c2)C(=O)N(C)[C@@H](Cc2ccc(O)cc2)C(=O)N1C [Example 10637] ({CH2CO}-[Phe(3,4,5-F3)][NMeY][NMeNle][d(cisHyp)]DV[NMeF]E[d(cisHyp)]WYECG-NH2; thioether N-13) | 10 to 99.9
CCCC[C@H]1C(=O)N(C)[C@@H](CCCC)C(=O)N[C@@H](CCC(=O)O)C(=O)N[C@H](C(=O)NCC(N)=O)CSCC(=O)N[C@@H](Cc2ccc(OC)cc2)C(=O)N(C)[C@@H](C)C(=O)N[C@@H](CC(=O)O)C(=O)N2CCC[C@H]2C(=O)N[C@@H](Cc2cnc[nH]2)C(=O)N[C@@H](CCCCN)C(=O)N2C[C@H](O)C[C@H]2C(=O)N[C@@H](Cc2c[nH]c3ccccc23)C(=O)N[C@@H](CCN)C(=O)N[C@@H](Cc2c[nH]c3ccccc23)C(=O)N1C [Example 7119] ({CH2CO}-Y(Me)[NMeA]DPHK[Hyp]W[Dab]W[NMeNle][NMeNle]ECG-NH2; thioether N-14) | 1 to 9.9
CCCC[C@H]1C(=O)N(C)[C@@H](CCCC)C(=O)N[C@@H](C)C(=O)N[C@H](C(=O)NCC(N)=O)CSCC(=O)N[C@@H](Cc2ccc(O)cc2)C(=O)N2CCCC[C@H]2C(=O)N[C@@H](CC(=O)O)C(=O)N2CCC[C@H]2C(=O)N[C@@H](Cc2cnc[nH]2)C(=O)N[C@@H](CCC(N)=O)C(=O)N2C[C@H](O)C[C@H]2C(=O)N[C@@H](Cc2c[nH]c3ccccc23)C(=O)N[C@@H](CO)C(=O)N[C@@H](Cc2cn(C)c3ccccc23)C(=O)N1C [Example 1502] ({CH2CO}-Y[Pip]DPHQ[Hyp]WS[Trp(1-Me)][NMeNle][NMeNle]ACG-NH2; thioether N-14) | 10 to 99.9
CCCC[C@H]1C(=O)N2CCC[C@@H]2C(=O)N[C@@H](CC(=O)O)C(=O)N[C@@H](C(C)C)C(=O)N(C)[C@@H](CC(C)C)C(=O)N[C@@H](Cc2ccc(O)cc2)C(=O)N2CCCC[C@@H]2C(=O)N[C@@H](Cc2c[nH]c3ccccc23)C(=O)N[C@@H](Cc2ccc(O)cc2)C(=O)N[C@@H](CC(C)C)C(=O)N[C@H](C(=O)NCC(N)=O)CSCC(=O)N[C@@H](Cc2ccc(F)cc2)C(=O)N(C)[C@@H](Cc2ccccc2)C(=O)N1C [Example 9250] ({CH2CO}-[Phe(4-F)][NMeF][NMeNle][dP]DV[NMeL]Y[dPip]WYLCG-NH2; thioether N-13) | 1000 to 10000
CCCC[C@H]1C(=O)N(C)[C@@H](CCCC)C(=O)N[C@@H](CC(C)C)C(=O)N[C@H](C(=O)NCC(N)=O)CSCC(=O)N[C@@H](Cc2ccc(O)cc2)C(=O)N(C)[C@@H](C)C(=O)N[C@@H](CC(N)=O)C(=O)N2CCC[C@H]2C(=O)N[C@@H](CN)C(=O)N[C@@H](CC(C)C)C(=O)N2C[C@H](O)C[C@H]2C(=O)N[C@@H](Cc2c[nH]c3ccccc23)C(=O)N[C@@H](CCCCN)C(=O)N[C@@H](Cc2cn(CC(=O)O)c3ccccc23)C(=O)N1C [Example 6296] ({CH2CO}-Y[NMeA]NP[Dap]L[Hyp]WK[Trp(1-CH2COOH)][NMeNle][NMeNle]LCG-NH2; thioether N-14) | 1 to 9.9
CCCC[C@H]1C(=O)N(C)[C@@H](CCCC)C(=O)N[C@@H](CCC(=O)O)C(=O)N[C@H](C(=O)NCC(N)=O)CSCC(=O)N[C@@H](Cc2ccc(O)cc2)C(=O)N2CCCC[C@H]2C(=O)N[C@@H](CC(N)=O)C(=O)N2CCC[C@H]2C(=O)N[C@@H](Cc2cnc[nH]2)C(=O)N[C@@H](CCC(=O)O)C(=O)N2C[C@H](O)C[C@H]2C(=O)N[C@@H](Cc2c[nH]c3ccccc23)C(=O)N[C@@H](CO)C(=O)N[C@@H](Cc2c[nH]c3ccccc23)C(=O)N1C [Example 1252] ({CH2CO}-Y[Pip]NPHE[Hyp]WSW[NMeNle][NMeNle]ECG-NH2; thioether N-14) | 1 to 9.9
CCCC[C@H]1C(=O)N(C)[C@@H](CCCC)C(=O)N[C@@H](C)C(=O)N[C@H](C(=O)NCC(N)=O)CSCC(=O)N[C@@H](Cc2ccc(O)cc2)C(=O)N(C)[C@@H](C)C(=O)N[C@@H](CC(=O)O)C(=O)N2CCC[C@H]2C(=O)N[C@@H](Cc2cnc[nH]2)C(=O)N[C@@H](CCCN)C(=O)N2C[C@H](O)C[C@H]2C(=O)N[C@@H](Cc2c[nH]c3ccccc23)C(=O)N[C@@H](CO)C(=O)N[C@@H](Cc2cn(CC(=O)O)c3ccccc23)C(=O)N1C [Example 6249] ({CH2CO}-Y[NMeA]DPH[Orn][Hyp]WS[Trp(1-CH2COOH)][NMeNle][NMeNle]ACG-NH2; thioether N-14) | 1 to 9.9
CCCC[C@H]1C(=O)N(C)[C@@H](CCCC)C(=O)N[C@@H](CO)C(=O)NC(C(=O)NCC(N)=O)CSCC(=O)N[C@@H](Cc2ccc(O)cc2)C(=O)N(C)[C@@H](C)C(=O)N[C@@H](CC(N)=O)C(=O)N2CCC[C@H]2C(=O)N[C@@H](CC(N)=O)C(=O)N[C@@H](CC(C)C)C(=O)N2C[C@H](O)C[C@H]2C(=O)N[C@@H](Cc2c[nH]c3ccccc23)C(=O)N[C@@H](CO)C(=O)N[C@@H](Cc2c[nH]c3ccccc23)C(=O)N1C (stereo partly drawn) [Example 9142] ({CH2CO}-Y[NMeA]NPNL[Hyp]WSW[NMeNle][NMeNle]S[ξC]G-NH2; thioether N-14) | 1 to 9.9
CCCC[C@H]1C(=O)N2CCC[C@@H]2C(=O)N[C@@H](CC(=O)O)C(=O)N[C@@H](C(C)C)C(=O)N(C)[C@@H](Cc2ccccc2)C(=O)N[C@@H](CC(=O)O)C(=O)N2CCCC[C@@H]2C(=O)N[C@@H](Cc2c[nH]c3ccccc23)C(=O)N[C@@H](Cc2ccc(O)cc2)C(=O)N[C@@H](CN)C(=O)N[C@H](C(=O)NCC(N)=O)CSCC(=O)N[C@@H](Cc2cc(F)c(F)c(F)c2)C(=O)N(C)[C@@H](Cc2ccc(F)cc2)C(=O)N1C [Example 10572] ({CH2CO}-[Phe(3,4,5-F3)][NMePhe(4-F)][NMeNle][dP]DV[NMeF]D[dPip]WY[Dap]CG-NH2; thioether N-13) | 1 to 9.9
CCCC[C@H]1C(=O)N(C)[C@@H](CCCC)C(=O)N[C@@H](CCCN)C(=O)N[C@H](C(=O)NCC(N)=O)CSCC(=O)N[C@@H](Cc2ccc(OC)cc2)C(=O)N(C)[C@@H](C)C(=O)N[C@@H](CCN)C(=O)N2CCC[C@H]2C(=O)N[C@@H](Cc2cnc[nH]2)C(=O)N[C@@H](CCCCN)C(=O)N2C[C@H](O)C[C@H]2C(=O)N[C@@H](Cc2c[nH]c3ccccc23)C(=O)N[C@@H](CCN)C(=O)N[C@@H](Cc2c[nH]c3ccccc23)C(=O)N1C [Example 7095] ({CH2CO}-Y(Me)[NMeA][Dab]PHK[Hyp]W[Dab]W[NMeNle][NMeNle][Orn]CG-NH2; thioether N-14) | 1 to 9.9
